The record followed here is PubChem BioAssay (NCI).

The TGI is the concentration giving total growth inhibition.

Each structure is given as a SMILES string.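 Test compounds were applied to cells in 96-well plates for 48 hours at 5 doses. TGI marks complete inhibition of growth.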

For one assay, the system named is SK-MEL-5 melanoma. The experiment in a line: DTP human tumour cell line panel, 48 h.
The compound `CC(=O)OC1COC(n2c(O)c(N=NC(N)=S)c3cc(Br)ccc32)C(OC(C)=O)C1OC(C)=O` (configuration not stated) registered a concentration for total growth inhibition (TGI) of more than 100 µM.

As for `O=C(CSc1nnc(-c2ccc(N=Cc3ccc(Cl)cc3)cc2)o1)Nc1ccccc1[N+](=O)[O-]`, the TGI is more than 100 µM.

The next assay has as its system IGROV1 ovarian. Briefly: DTP human tumour cell line panel, 48 h.
On to `O=c1[nH]c2cc([N+](=O)[O-])ccc2nc1/C(=N/Nc1ccccc1)C(O)c1ccccc1Cl` (configuration not stated), for which the total growth inhibition concentration (TGI) is more than 100 µM.

In turn, `C=Cc1ccc(C)[n+](C[Si](C)(C)O[Si](C)(C)C)c1` showed a TGI of more than 100 µM.

`C[C@]12CCC(=O)C=C1CC[C@@H]1[C@@H]2CC[C@]2(C)C(=O)NC(=O)C[C@@H]12` registered a TGI of more than 100 µM.

`COc1cc2c(oc(=O)c3c4oc([Si](C)(C)C)cc4cc(OC)c23)c2cccc(OCc3ccccc3)c12` yielded a total growth inhibition concentration (TGI) of more than 100 µM.

In turn, `CN(C)Nc1cc(=O)[nH]c(=O)[nH]1` yielded a TGI of more than 100 µM.

On to `O=C(c1cccs1)N(C(=S)N1CCN(c2ccccn2)CC1)c1ccccc1`, for which the TGI was more than 100 µM.

Compound `CNS(=O)(=O)NN(C)S(=O)(=O)c1ccccc1` had a total growth inhibition concentration (TGI) of more than 100 µM.

`CC(=O)OCC1=C(CCC#N)N2C(=O)C(NC(=O)Cc3cccs3)C2S(=O)C1` (configuration not stated) displayed a TGI of more than 100 µM.

The compound `O=c1c2c(oc3ccccc13)-c1ccccc1OC2` yielded a TGI of more than 100 µM.

In turn, `CCSc1[nH]c(NC(=S)NC(=O)c2ccccc2Cl)c(C(N)=O)c1C(N)=O` came in with a TGI of more than 10 µM.

As for `CCCCNc1nc(C#N)c(N)s1`, the TGI is more than 100 µM.

Take `Cn1cc2ccccc2c1-c1nc(F)nc(F)n1`: the TGI was more than 100 µM.

`COC(=O)N/N=C(\Cc1ccccc1)CN(C)C` displayed a TGI of more than 100 µM.

With `CC1=NN(C(=O)c2ccccc2O)C(=O)/C1=C/c1ccco1`, the TGI was more than 35.4 µM.

Regarding `COc1ccc2c3c1O[C@]1(C)C34CCN(C)C(C2)C42C=C[C@@]1(OC)c1c(O)ccc(O)c12`, the concentration for total growth inhibition (TGI) is more than 100 µM.

For `C[N+](C)(C)CC(=O)N/N=C/c1oc(-c2c(O)ccc3ccccc23)c(-c2c(O)ccc3ccccc23)c1[N+](=O)[O-]`, the TGI was 44.2 µM.

Consider `COC(=O)C1(CCC(C)=O)CCCCCC1=O` (configuration not stated), for which the TGI is more than 100 µM.

Turning to `CCc1n[nH]c(=O)n1/N=C/c1c(O)ccc2ccccc12`, the TGI was more than 100 µM.

Compound `CC(=O)OC1COC(n2c(O)c(N=NC(N)=S)c3cc(Br)ccc32)C(OC(C)=O)C1OC(C)=O` (configuration not stated) displayed a TGI of more than 100 µM.

The test system of the next assay is UO-31 renal. Briefly: DTP human tumour cell line panel, 48 h.
`O=c1[nH]c2cc([N+](=O)[O-])ccc2nc1/C(=N/Nc1ccccc1)C(O)c1ccccc1Cl` (configuration not stated): the TGI was more than 100 µM.

In turn, `C=Cc1ccc(C)[n+](C[Si](C)(C)O[Si](C)(C)C)c1` yielded a TGI of more than 100 µM.

In turn, `C[C@]12CCC(=O)C=C1CC[C@@H]1[C@@H]2CC[C@]2(C)C(=O)NC(=O)C[C@@H]12` came in with a TGI of more than 100 µM.

Compound `COc1cc2c(oc(=O)c3c4oc([Si](C)(C)C)cc4cc(OC)c23)c2cccc(OCc3ccccc3)c12` gave a TGI of more than 100 µM.

`CN(C)Nc1cc(=O)[nH]c(=O)[nH]1` displayed a concentration for total growth inhibition (TGI) of more than 100 µM.

Regarding `O=C(c1cccs1)N(C(=S)N1CCN(c2ccccn2)CC1)c1ccccc1`, the concentration for total growth inhibition (TGI) is more than 100 µM.

In the case of `CNS(=O)(=O)NN(C)S(=O)(=O)c1ccccc1`, the TGI was more than 100 µM.

`O=[N+]([O-])/C(C(Cl)=C(Cl)Cl)=C(\N1CCOCC1)n1nnc2ccccc21` registered a TGI of 33 µM.

Compound `CC(=O)OCC1=C(CCC#N)N2C(=O)C(NC(=O)Cc3cccs3)C2S(=O)C1` (configuration not stated) returned a TGI of more than 100 µM.

`O=c1c2c(oc3ccccc13)-c1ccccc1OC2` returned a TGI of more than 100 µM.

`CCCCNc1nc(C#N)c(N)s1`: the TGI is more than 100 µM.

`Cn1cc2ccccc2c1-c1nc(F)nc(F)n1` registered a TGI of more than 100 µM.

Take `COc1ccc2c3c1O[C@]1(C)C34CCN(C)C(C2)C42C=C[C@@]1(OC)c1c(O)ccc(O)c12`: the TGI is more than 100 µM.

On to `C[N+](C)(C)CC(=O)N/N=C/c1oc(-c2c(O)ccc3ccccc23)c(-c2c(O)ccc3ccccc23)c1[N+](=O)[O-]`, for which the TGI turned out to be 36 µM.

As to `COC(=O)C1(CCC(C)=O)CCCCCC1=O` (configuration not stated), the concentration for total growth inhibition (TGI) was more than 100 µM.

For the compound `CCc1n[nH]c(=O)n1/N=C/c1c(O)ccc2ccccc12`, the TGI was more than 100 µM.

The compound `O=C(CSc1nnc(-c2ccc(N=Cc3ccc(Cl)cc3)cc2)o1)Nc1ccccc1[N+](=O)[O-]` displayed a TGI of more than 100 µM.

Another assay deals with U251 CNS. Briefly: DTP human tumour cell line panel, 48 h.
As to `O=c1[nH]c2cc([N+](=O)[O-])ccc2nc1/C(=N/Nc1ccccc1)C(O)c1ccccc1Cl` (configuration not stated), the TGI is more than 100 µM.

The compound `C=Cc1ccc(C)[n+](C[Si](C)(C)O[Si](C)(C)C)c1` yielded a TGI of more than 100 µM.

`C[C@]12CCC(=O)C=C1CC[C@@H]1[C@@H]2CC[C@]2(C)C(=O)NC(=O)C[C@@H]12` yielded a TGI of more than 100 µM.

The compound `CN(C)Nc1cc(=O)[nH]c(=O)[nH]1` came in with a TGI of more than 100 µM.

`O=C(c1cccs1)N(C(=S)N1CCN(c2ccccn2)CC1)c1ccccc1` had a TGI of more than 100 µM.

Regarding `CNS(=O)(=O)NN(C)S(=O)(=O)c1ccccc1`, the TGI was more than 100 µM.

`O=[N+]([O-])/C(C(Cl)=C(Cl)Cl)=C(\N1CCOCC1)n1nnc2ccccc21` came in with a TGI of 30.3 µM. This counts as double-digit micromolar.

`CC(=O)OCC1=C(CCC#N)N2C(=O)C(NC(=O)Cc3cccs3)C2S(=O)C1` (configuration not stated) yielded a total growth inhibition concentration (TGI) of more than 100 µM.

`O=c1c2c(oc3ccccc13)-c1ccccc1OC2`: the TGI was more than 100 µM.

In the case of `CCCCNc1nc(C#N)c(N)s1`, the TGI was more than 100 µM.

`Cn1cc2ccccc2c1-c1nc(F)nc(F)n1`: the TGI was more than 100 µM.

`COC(=O)N/N=C(\Cc1ccccc1)CN(C)C` came in with a TGI of more than 100 µM.

Compound `CC1=NN(C(=O)c2ccccc2O)C(=O)/C1=C/c1ccco1` showed a TGI of more than 100 µM.

`COc1ccc2c3c1O[C@]1(C)C34CCN(C)C(C2)C42C=C[C@@]1(OC)c1c(O)ccc(O)c12` came in with a TGI of more than 100 µM.

With `C[N+](C)(C)CC(=O)N/N=C/c1oc(-c2c(O)ccc3ccccc23)c(-c2c(O)ccc3ccccc23)c1[N+](=O)[O-]`, the concentration for total growth inhibition (TGI) came out at 47.8 µM. In other words, the double-digit micromolar range.

In turn, `COC(=O)C1(CCC(C)=O)CCCCCC1=O` (configuration not stated) returned a TGI of more than 100 µM.

`CCc1n[nH]c(=O)n1/N=C/c1c(O)ccc2ccccc12` came in with a TGI of more than 100 µM.

Consider `CC(=O)OC1COC(n2c(O)c(N=NC(N)=S)c3cc(Br)ccc32)C(OC(C)=O)C1OC(C)=O` (configuration not stated), for which the TGI was more than 100 µM.

Compound `O=C(CSc1nnc(-c2ccc(N=Cc3ccc(Cl)cc3)cc2)o1)Nc1ccccc1[N+](=O)[O-]` showed a TGI of more than 100 µM.

A further assay concerns M14 melanoma. Briefly: DTP human tumour cell line panel, 48 h.
The compound `O=c1[nH]c2cc([N+](=O)[O-])ccc2nc1/C(=N/Nc1ccccc1)C(O)c1ccccc1Cl` (configuration not stated) came in with a TGI of more than 100 µM.

On to `C=Cc1ccc(C)[n+](C[Si](C)(C)O[Si](C)(C)C)c1`, for which the total growth inhibition concentration (TGI) is more than 100 µM.

Regarding `C[C@]12CCC(=O)C=C1CC[C@@H]1[C@@H]2CC[C@]2(C)C(=O)NC(=O)C[C@@H]12`, the TGI is more than 100 µM.

As for `COc1cc2c(oc(=O)c3c4oc([Si](C)(C)C)cc4cc(OC)c23)c2cccc(OCc3ccccc3)c12`, the TGI was 61.3 µM.

`CN(C)Nc1cc(=O)[nH]c(=O)[nH]1` returned a TGI of more than 100 µM.

`O=C(c1cccs1)N(C(=S)N1CCN(c2ccccn2)CC1)c1ccccc1` returned a TGI of more than 100 µM.

On to `CNS(=O)(=O)NN(C)S(=O)(=O)c1ccccc1`, for which the TGI is more than 100 µM.

As for `O=[N+]([O-])/C(C(Cl)=C(Cl)Cl)=C(\N1CCOCC1)n1nnc2ccccc21`, the TGI was determined as 33.4 µM.

`CC(=O)OCC1=C(CCC#N)N2C(=O)C(NC(=O)Cc3cccs3)C2S(=O)C1` (configuration not stated) yielded a TGI of more than 100 µM.

The compound `O=c1c2c(oc3ccccc13)-c1ccccc1OC2` displayed a TGI of more than 100 µM.
